Where two headings read alike, the source gives them in different places.
Biological target: T1, recombinant human androgen receptor (hAR) (Homo sapiens, UniProt P10275)
T1 construct: made in house; host or cells: Sf9 insect cells (baculovirus)
Assay: Human Androgen Receptor Binding Analysis (competitive binding vs 3H-dihydrotestosterone)
Conditions: 1 nM 3H-DHT tracer, hydroxylapatite, one hour at 4° C

[1] = hAR Binding IC50, baculovirus/Sf9 generated hAR extract

T1 sequence (P10275 whole entry): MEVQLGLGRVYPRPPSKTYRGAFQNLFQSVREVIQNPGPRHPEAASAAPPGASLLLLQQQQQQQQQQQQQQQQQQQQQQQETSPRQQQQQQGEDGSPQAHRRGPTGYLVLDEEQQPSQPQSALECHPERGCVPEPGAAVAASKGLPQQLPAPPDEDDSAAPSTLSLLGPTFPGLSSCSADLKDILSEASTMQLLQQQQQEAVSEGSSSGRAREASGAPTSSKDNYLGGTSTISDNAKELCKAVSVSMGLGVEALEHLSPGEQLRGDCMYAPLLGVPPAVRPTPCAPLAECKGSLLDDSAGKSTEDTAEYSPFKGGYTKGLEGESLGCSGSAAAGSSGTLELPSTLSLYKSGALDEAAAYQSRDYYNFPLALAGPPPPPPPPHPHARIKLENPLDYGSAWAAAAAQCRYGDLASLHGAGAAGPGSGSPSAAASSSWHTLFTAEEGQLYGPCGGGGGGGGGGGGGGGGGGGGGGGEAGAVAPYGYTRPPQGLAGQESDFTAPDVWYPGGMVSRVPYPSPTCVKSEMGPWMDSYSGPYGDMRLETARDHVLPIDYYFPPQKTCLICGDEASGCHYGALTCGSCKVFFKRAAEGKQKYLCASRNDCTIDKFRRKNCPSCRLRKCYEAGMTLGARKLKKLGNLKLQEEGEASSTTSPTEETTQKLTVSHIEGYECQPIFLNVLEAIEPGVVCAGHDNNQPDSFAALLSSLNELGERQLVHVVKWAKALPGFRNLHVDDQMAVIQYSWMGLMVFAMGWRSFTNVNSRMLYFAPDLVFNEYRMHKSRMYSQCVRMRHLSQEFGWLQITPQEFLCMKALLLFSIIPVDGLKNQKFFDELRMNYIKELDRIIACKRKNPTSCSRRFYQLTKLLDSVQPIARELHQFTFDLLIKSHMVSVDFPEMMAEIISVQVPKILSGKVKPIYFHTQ
Description: The following is a brief description of the assay that determines the affinity of a compound for the recombinant human androgen receptor (hAR). Competitive binding analysis is performed on baculovirus/Sf9 generated hAR extracts in the presence or absence of differing concentrations of drug and a fixed concentration of ^3 H-dihydrotestosterone (^3 H-DHT) as tracer. […] Briefly, progressively decreasing concentrations of compounds are incubated in the presence of hAR extract (Chang et al. P.N.A.S. Vol. 89, pp. 5546-5950, 1992), hydroxylapatite and 1 nM ^3 H-DHT for one hour at 4° C. Subsequently, the binding reactions are washed three times to completely remove excess unbound ^3 H-DHT. hAR bound.
^3 H-DHT levels are determined in the presence of compounds (=competitive binding) and compared to levels bound when no competitor is present (=maximum binding). Compound binding affinity to the hAR is expressed as the concentration of compound at which one half of the maximum binding is inhibited.

Structure (SMILES) | IC50 [1] | IC50 (baculovirus/Sf9 generated hAR extract, read-out: hAR Binding IC50)
CCC1CCNc2cc3oc(=O)cc(C(F)(F)F)c3cc21 (single isomer, unassigned; (-)) [(-) Enantiomer, (-)-5-ethyl-4-trifluoromethyl-5,6,7,8-tetrahydro-1-oxa-8-aza-anthracen-2-one] | 0.005 µM | 
CCC1CCNc2cc3oc(=O)cc(C(F)(F)F)c3cc21 (single isomer, unassigned; (+)) [(+) Enantiomer, (+)-5-Ethyl-4-trifluoromethyl-5,6,7,8-tetrahydro-1-oxa-8-aza-anthracen-2-one] | 0.112 µM | 
CCC1CCNc2cc3oc(=O)cc(C(F)(F)F)c3cc21 (racemic) [Racemate (±), Racemic 5-ethyl-4-trifluoromethyl-5,6,7,8-tetrahydro-1-oxa-8-aza-anthracen-2-one, reference compound] |  | 0.035 µM

Source: patent US6083956A, “Optically pure androgen mediator” (Pfizer Inc., priority 1999, dated 2000)
